Laboratory results published in patent US8772348B2, “Materials and methods for pest control” (priority 2009, dated 2014).
Where two headings read alike, the source gives them in different places.

How the values were obtained:
Aedes aegypti [1] = conditions: formulation on military fabric at LC99-based concentration, 2 h exposure, mortality 24 h after initial exposure
Description: Briefly, after mosquitoes are exposed to formulations for 2 hours at a concentration of LC99, each set is transferred into a separate glass jar, and held for another 24 hours. The mortality rate is measured with new mosquitoes on post-treatment days 2, 3, 5, 8 and 14 (Day 1 starts at 24 hours after the transfer), and is determined using the same procedures as are illustrated in Example 2.
Concentrations were generated from technical-based LC99 values obtained from a 2 h exposure period on military fabric. Fabric was treated on day 0 and was held until exposure on post-treatment day. Mosquitoes were exposed for 2 h, and mortality rate was assessed 24 h after initial exposure. Control contained formulation ingredients without semiochemicals.

Aedes aegypti [2] = conditions: formulation on plywood panels at 1.67 mg cm^−2, 2 h exposure, mortality 24 h after initial exposure
Description: Briefly, after mosquitoes are assayed on unpainted plywood panel boards with formulation at a concentration of 1.67 mg cm^−2 for 2 hours, they are transferred into a separate glass jar, and held for another 24 hours. The mortality rate is measured daily for a continuous 4 days (Day 1 starts at 24 hours after the transfer), as is determined using the same procedures as are illustrated in Example 2.
Plywood panels (225 cm^2) were treated with chemicals at a rate of 1.67 mg cm^−2. Panels were treated on day 0 and was held until exposure on post-treatment day. Mosquitoes were exposed to chemicals for 2 h, and mortality rate was assessed 24 h after initial exposure. Control contained formulation ingredients without semiochemicals.

[3] = tested on: Susceptible Musca domestica; test: Contact bioassay of emulsified concentrate formulations on filter paper discs; conditions: EC formulation on filter paper
Description: (§1) A commercially-available permethrin 57 g L^−1 EC (Ectiban EC 57; Universal Cooperatives, Minneapolis, Minn.) was included for comparison. Except rosalva, the 50% EC semiochemical formulations were generated by combining 500 mL AI, 430 mL canola oil (Publix, Lakeland, Fla.), 10 mL xylene, 50 mL Triton X-100 (Acros Organics Nev., Fair Lawn, N.J.) and 10 mL Agsolex-8 (International Specialty Products, Wayne, N.J.). The rosalva formulation contained all of the above-mentioned ingredients, with canola oil concentration reduced to 400 mL L^−1, Triton X-100 concentration increased to 75 mL L^−1, and 5 mL L^−1 Antifoam B silicone emulsion (Mallinckrodt Baker, Phillipsburg, N.Y.) included.
Briefly, Whatman No. 1 filter paper discs (63.58 cm^2) are impregnated with 1.5 ml serially diluted formulations in 20 emulsified concentrates and 50 emulsified concentrates, respectively, and subsequently dried for about an hour. Then, house flies are divided into seven sets: three sets as the experiment, three sets as the positive control, and one set as the negative control. Each set consists of twenty six-to-ten-day old adult flies. […] The positive control set is exposed to paper discs impregnated with geranyl acetone, rosalva or citronellol. The negative control set is exposed to paper discs impregnated with acetone solution. Throughout the exposure periods, each set is provided with 10% sucrose solution and sufficient air circulation. Ataxic flies are considered dead. The mortality rate and the LC values are determined using the same procedures as is illustrated in Example 2.

Aedes aegypti [4] = conditions: EC formulation on military fabric
Description: as §1
Briefly, a piece of 10×10 cm^2 fabric (TenCate Defender™) is impregnated with 2 ml of serially diluted 20-emulsifiable concentrate or 50-emulsifiable concentrate formulations, respectively, and subsequently dried for about an hour. Also, six-to-ten-day-old, never blood-fed, adult female Ae. aegypti mosquitoes are obtained. The mosquitoes are divided into seven sets: three sets as the experiment, three sets as the positive control, and one set as the negative control. Each set consists of 20 mosquitoes. […] The positive control set is exposed to fabric pieces treated with geranyl acetone, rosalva or citronellol. The negative control set is exposed to fabric pieces treated with acetone solution. Throughout the exposure periods, each set is provided with 10% sucrose solution and sufficient air circulation. Ataxic mosquitoes are considered dead. The mortality rate and the LC values are determined using the same procedures as are illustrated in Example 2.

Row | SMILES | % mortality on various days following treatment (Aedes aegypti [1]; day 1) [a %] | % mortality on various days following treatment (Aedes aegypti [1]; day 2) [a %] | % mortality on various days following treatment (Aedes aegypti [1]; day 5) [b %] | % mortality on various days following treatment (Aedes aegypti [1]; day 14) | % mortality on various days following treatment (Aedes aegypti [2]; day 1) | % mortality on various days following treatment (Aedes aegypti [2]; day 2) | % mortality on various days following treatment (Aedes aegypti [2]; day 3) | % mortality on various days following treatment (Aedes aegypti [2]; day 4) | LC90 ([3]; 24 h constant exposure) [μg cm^−2] | LC90 ([3]; 48 h constant exposure) [μg cm^−2] | LC90 (Aedes aegypti [4]; exposure period 2 hours) [μg cm^−2] | LC90 (Aedes aegypti [4]; exposure period 4 hours) [μg cm^−2] | LC90 (Aedes aegypti [4]; exposure period 24 hours) [μg cm^−2] | % mortality on various days following treatment (Aedes aegypti [1]; day 3) | % mortality on various days following treatment (Aedes aegypti [1]; day 8)
1 | CC(C)=CCCC(C)CCO (stereo not shown) [Citronellol, citronellol] | 95.00 | 77.50 | 35.00 | 2.50cd % | 94.00a % | 61.0b % | 26.0b % | 10.0b % | 580.00 | 886.04 | 1938.19 | 1434.18 | 700.43 |  | 
2 | CC(=O)CC/C=C(\C)CCC=C(C)C [Geranyl acetone, geranyl acetone] | 91.25 | 83.00 | 32.50 | 5.00c % | 84.00a % | 25.0c % | 8.0c % | 5.0c % | 1227.00 | 716.72 | 934.62 | 742.61 | 338.61 | 30.00c % | 17.50c %
3 | C=CCCCCCCCCO [Rosalva, rosalva] | 95.00 | 87.50 | 35.00 | 0.00d % | 58.00b % | 34.0c % | 11.0% | 3.25.c % | 1054.32 | 1022.88 | 1276.16 | 1262.11 | 500.92 | 65.00b % | 27.50a %
